In patent publication US8247556B2, “Method for preparing 6-substituted-7-aza-indoles” (Amgen Inc., priority 2005, dated 2012) one finds IC50 data, which are given here for 15 compounds.

Assay [1] deals with VEGF-stimulated HUVEC proliferation (Human Umbilical Vein Endothelial cells). The assay can be described thus: HUVEC Proliferation Assay. The format is cell-based. To be noted: VEGF 50 ng/mL, 72 h, CyQuant fluorescent dye, read-out: inhibited VEGF-stimulated HUVEC proliferation at a level. The procedure:
Human Umbilical Vein Endothelial cells are purchased from Clonetics, Inc., as cryopreserved cells harvested from a pool of donors. These cells, at passage 1, are thawed and expanded in EBM-2 complete medium, until passage 2 or 3. The cells are trypsinized, washed in DMEM+10% FBS+antibiotics, and spun at 1000 rpm for 10 min. Prior to centrifugation of the cells, a small amount is collected for a cell count. After centrifugation, the medium is discarded, and the cells are resuspended in the appropriate volume of DMEM+10% FBS+antibiotics to achieve a concentration of 3×10^5 cells/mL. Another cell count is performed to confirm the cell concentration. The cells are diluted to 3×10^4 cells/mL in DMEM+10% FBS+antibiotics, and 100 μL of cells are added to a 96-well plate. The cells are incubated at 37° C. for 22 h.
Prior to the completion of the incubation period, compound dilutions are prepared. Five-point, five-fold serial dilutions are prepared in DMSO, at concentrations 400-fold greater than the final concentrations desired. 2.5 μL of each compound dilution are diluted further in a total of 1 mL DMEM+10% FBS+antibiotics (400× dilution). Medium containing 0.25% DMSO is also prepared for the 0 μM compound sample. At the 22 h time point, the medium is removed from the cells, and 100 μL of each compound dilution is added. The cells are incubated at 37° C. for 2-3 h.
During the compound pre-incubation period, the growth factors are diluted to the appropriate concentrations. Solutions of DMEM+10% FBS+antibiotics, containing either VEGF or bFGF at the following concentrations: 50, 10, 2, 0.4, 0.08, and 0 ng/mL are prepared. For the compound-treated cells, solutions of VEGF at 550 ng/mL or bFGF at 220 ng/mL for 50 ng/mL or 20 ng/mL final concentrations, respectively, are prepared since 10 μL of each will be added to the cells (110 μL final volume). At the appropriate time after adding the compounds, the growth factors are added. VEGF is added to one set of plates, while bFGF is added to another set of plates. For the growth factor control curves, the media on wells B4-G6 of plates 1 and 2 are replaced with media containing VEGF or bFGF at the varying concentrations (50-0 ng/mL). The cells are incubated at 37° C. for an additional 72 h.
At the completion of the 72 h incubation period, the medium is removed, and the cells are washed twice with PBS. After the second wash with PBS, the plates are tapped gently to remove excess PBS, and the cells are placed at −70° C. for at least 30 min. The cells are thawed and analyzed using the CyQuant fluorescent dye (Molecular Probes C-7026), following the manufacturer's recommendations. The plates are read on a Victor/Wallac 1420 workstation at 485 nm/530 nm (excitation/emission). Raw data are collected and analyzed using a 4-parameter fit equation in XLFit. IC50 values are then determined.

A further assay addresses T1, CYP 2D6 (Homo sapiens, UniProt P10635).
T1 construct: followed by 555.6 ml of 20 mg/mL HLM (BD Gentest); tissue BD Gentest; host or cells: human liver microsomes
Kind of assay: Human Liver Microsome CYP 2D6 Inhibition. In kind it is in vitro ADME. The note with it: human liver microsomes, bufuralol substrate; read-out: inhibited CYP2D6 microsomes, IC50. How it is done:
Determining the IC-50 for Human Liver Microsome CYP 2D6 Inhibition
Postassium Phosphate Buffer pH 7.4 (39.333 mL) is chilled in an ice bath and added to a 50 ml plastic tube. A 3.2 mM bufuralol solution is prepared. 111.1 ul of 3.2 mM bufuralol is added to the buffer followed by 555.6 ml of 20 mg/mL HLM (BD Gentest). The incubation mixture was gently inverted and equilibrated at 37° C. for 5 min. A stock inhibitor solution is prepared, such as in DMSO. Incubation mixture (801 ul) is added into 96-well, 1.2 mL plastic tubes. Inhibitor is added at various concentrations (e.g. 30 μM to […]). The tubes are sealed and mix by inverting 5 times gently. The incubation mixture containing inhibitor (270 μL) is added by aliquot into wells of a 1 mL, 96-well block (duplicate). The block is placed into a 37° C. water bath and equilibrated for 3 minutes. 10 mM NADPH (30 ml) is added to all samples. After 5 min, the reactions are stopped by adding 300 ml of Quench Solution [0.1% TFA in CH3CN]. 1′-OH-bufuralol-d9 (750 ng/mL 30 μL) is added, the block is gently vortexed then centrifuged at 3000 rpm for 10 min at 4° C. 50 μL of supernatant from all samples is added by aliquot into a shorter, 96-well block. The aliquoted supernatants are pooled with other assay(s) and HPLC Grade Water (50 μL) is added to all samples. After covering and shaking by vortex gently for 2 minutes, the solutions were analyzed by LC-MS (API 3000, 5% MeOH w/0.1% AcOH to 95% MeOH w/0.1% AcOH). 500 nM quinidine is used as a control.
Background: Liver microsomes are vesicles of endoplasmic reticulum, rich in cytochrome P450 enzymes.

For a further assay, the target named is T2, CYP 3A4 (Homo sapiens, UniProt P08684).
T2 construct: followed by 222.2 ml of 20 mg/mL HLM (BD Gentest); tissue BD Gentest; host or cells: human liver microsomes
The assay can be described thus: Human Liver Microsome CYP 3A4 Inhibition. The format is in vitro ADME. The note with it: human liver microsomes, midazolam substrate; read-out: inhibited CYP3A4 microsomes, IC50. How it is done: Determining the IC-50 for Human Liver Microsome CYP 3A4 Inhibition
Postassium Phosphate Buffer pH 7.4 (39.667 mL) is chilled in an ice bath and added to a 50 ml plastic tube. A 2 mM midazolam solution is prepared. 111.1 ul of 2 mM midazolam is added to the buffer followed by 222.2 ml of 20 mg/mL HLM (BD Gentest). The incubation mixture was gently inverted and equilibrated at 37° C. for 5 min. A stock inhibitor solution is prepared, such as in DMSO. Incubation mixture (801 ul) is added into 96-well, 1.2 mL plastic tubes. Inhibitor is added at various concentrations (e.g. 30 uM to 120 nM). The tubes are sealed and mix by inverting 5 times gently. The incubation mixture containing inhibitor (270 uL) is added by aliquot into wells of a 1 mL, 96-well block (duplicate). The block is placed into a 37° C. water bath and equilibrated for 3 min. 10 mM NADPH (30 ml) is added to all samples. After 5 minutes, the reactions are stopped by adding 300 ml of Quench Solution [0.1% TFA in CH3CN]. 1′-OH-Midazolam-d313C (2 mg/mL 30 uL) is added, the block is gently vortexed then centrifuged at 3000 rpm for 10 minutes at 4° C. 50 μL of supernatant from all samples is added by aliquot into a shorter, 96-well block. The aliquoted supernatants are pooled with other assay(s) and HPLC Grade Water (50 ul) is added to all samples. After covering and shaking by vortex gently for 2 minutes, the solutions were analyzed by LC-MS (API 3000,5% MeOH w/0.1% AcOH to 95% MeOH w/0.1% AcOH). 37 nM ketoconazole is used as a control.

T1 sequence (P10635 whole entry): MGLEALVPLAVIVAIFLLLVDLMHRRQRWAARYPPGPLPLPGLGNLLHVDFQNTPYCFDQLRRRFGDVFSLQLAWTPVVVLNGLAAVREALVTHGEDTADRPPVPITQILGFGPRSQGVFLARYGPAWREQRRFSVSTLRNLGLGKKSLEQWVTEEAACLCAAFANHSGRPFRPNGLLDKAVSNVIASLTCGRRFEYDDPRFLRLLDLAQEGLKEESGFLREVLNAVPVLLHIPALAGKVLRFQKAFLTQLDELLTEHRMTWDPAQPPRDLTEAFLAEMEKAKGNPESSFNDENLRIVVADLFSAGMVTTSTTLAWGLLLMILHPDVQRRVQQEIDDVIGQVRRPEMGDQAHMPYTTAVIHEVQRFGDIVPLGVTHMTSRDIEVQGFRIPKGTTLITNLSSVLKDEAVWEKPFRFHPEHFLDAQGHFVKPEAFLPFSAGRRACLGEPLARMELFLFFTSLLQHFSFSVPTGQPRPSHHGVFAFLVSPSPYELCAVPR
T2 sequence (P08684 whole entry): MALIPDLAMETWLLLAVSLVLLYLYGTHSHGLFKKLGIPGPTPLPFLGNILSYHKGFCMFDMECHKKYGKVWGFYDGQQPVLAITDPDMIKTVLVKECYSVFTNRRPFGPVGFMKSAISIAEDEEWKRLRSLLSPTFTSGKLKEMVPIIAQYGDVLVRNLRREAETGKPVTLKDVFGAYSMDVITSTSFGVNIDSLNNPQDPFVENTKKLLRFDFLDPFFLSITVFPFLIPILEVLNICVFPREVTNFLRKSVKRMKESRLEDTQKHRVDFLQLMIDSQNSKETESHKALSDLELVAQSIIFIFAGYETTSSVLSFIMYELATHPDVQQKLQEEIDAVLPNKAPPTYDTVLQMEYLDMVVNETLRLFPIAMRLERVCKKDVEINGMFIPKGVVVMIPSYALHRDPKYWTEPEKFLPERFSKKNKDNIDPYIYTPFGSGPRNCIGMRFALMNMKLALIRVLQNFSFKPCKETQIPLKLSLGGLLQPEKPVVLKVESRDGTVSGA

Regarding `CC1(C)CN(C(=O)CN)c2cc(NC(=O)c3cccnc3NCc3ccnc4[nH]ccc34)ccc21` [Example 21, N-(1-Glycyl-3,3-dimethyl-2,3-dihydro-1H-indol-6-yl)-2-[(1H-pyrrolo[2,3-b]pyridin-4-ylmethyl)amino]nicotinamide], the IC50 in assay [1] was below 0.5 µM; at CYP 2D6, above 20 µM.

Consider `CC(=O)N1CC(C)(C)c2ccc(NC(=O)c3cccnc3NCc3ccnc4c3CCN4)cc21` [Example 29, N-(1-Acetyl-3,3-dimethyl-2,3-dihydro-1H-indol-6-yl)-2-[(2,3-dihydro-1H-pyrrolo[2,3-b]pyridin-4-ylmethyl)amino]nicotinamide], for which the IC50 was below 0.5 µM in assay [1] and above 20 µM at CYP 2D6.

Consider `CC1(C)CCNc2cc(NC(=O)c3cccnc3NCc3ccnc4c3CCN4)ccc21` [Example 31, 2-[(2,3-Dihydro-1H-pyrrolo[2,3-b]pyridin-4-ylmethyl)amino]-N-(4,4-dimethyl-1,2,3,4-tetrahydroquinolin-7-yl)nicotinamide], for which the IC50 in assay [1] was below 0.5 µM; on CYP 2D6 it was above 20 µM.

With `CC1(C)CNCc2cc(NC(=O)c3cccnc3NCc3c[nH]c4ncccc34)ccc21` [Example 38, N-(4,4-Dimethyl-1,2,3,4-tetrahydroisoquinolin-7-yl)-2-[(1H-pyrrolo[2,3-b]pyridin-3-ylmethyl)amino]nicotinamide], the IC50 in assay [1] is below 0.5 µM; on CYP 2D6 it was above 20 µM.

Regarding `CC1(C)CCNc2cc(NC(=O)c3cccnc3NCc3c[nH]c4ncccc34)ccc21` [Example 40, N-(4,4-Dimethyl-1,2,3,4-tetrahydro-quinolin-7-yl)-2-[(1H-pyrrolo[2,3-b]pyridin-3-ylmethyl)-amino]-nicotinamide], the IC50 in assay [1] is below 0.5 µM; at CYP 2D6, above 20 µM.

In the case of `CC(=O)N1CCC(C)(C)c2ccc(NC(=O)c3cccnc3NCc3ccnc4[nH]ccc34)cc21` [Example 52, N-(1-Acetyl-4,4-dimethyl-1,2,3,4-tetrahydro-quinolin-7-yl)-2-[(1H-pyrrolo[2,3-b]pyridin-4-ylmethyl)-amino]-nicotinamide], the IC50 in assay [1] is below 0.5 µM; on CYP 2D6, above 20 µM.

Consider `CC1(C)CN(S(C)(=O)=O)c2cc(NC(=O)c3cccnc3NCc3ccnc4[nH]ccc34)ccc21` [Example 61, N-(1-Methanesulfonyl-3,3-dimethyl-2,3-dihydro-1H-indol-6-yl)-2-[(1H-pyrrolo[2,3-b]pyridin-4-ylmethyl)-amino]-nicotinamide], for which the figures for the IC50 (in assay [1]; at CYP 2D6) were below 0.5 µM and above 20 µM, respectively.

Turning to `[2H]C1([2H])CC(C)(C)c2ccc(NC(=O)c3cccnc3NCc3ccnc4[nH]ccc34)cc2N1` [Example 69, N-(2,2-Dideutero-4,4-dimethyl-1,2,3,4-tetrahydro-quinolin-7-yl)-2-[(1H-pyrrolo[2,3-b]pyridin-4-ylmethyl)-amino]-nicotinamide], the IC50 in assay [1] was below 0.5 µM; at CYP 2D6, above 20 µM.

On to `Cc1nc2cc(NC(=O)c3cccnc3NCc3ccnc4[nH]ncc34)ccc2s1` [Example 70, N-(2-Methyl-1,3-benzothiazol-5-yl)-2-((1H-pyrazolo[3,4-b]pyridin-4-ylmethyl)amino)-3-pyridinecarboxamide], for which the IC50 in assay [1] is below 0.5 µM; at CYP 2D6, above 20 µM.

As for `O=C(Nc1ccc(C(F)(F)F)cc1)c1cc(F)cnc1NCc1ccnc2[nH]ccc12` [Example 78, 5-fluoro-2-((1H-pyrrolo[2,3-b]pyridin-4-ylmethyl)amino)-N-(4-(trifluoromethyl)phenyl)-3-pyridinecarboxamide], the IC50 at CYP 3A4 was above 20 µM.

Regarding `CC(=O)N1CC(C)(C)c2ccc(NC(=O)c3cc(F)cnc3NCc3ccnc4[nH]ccc34)cc21` [Example 80, N-(1-acetyl-3,3-dimethyl-2,3-dihydro-1H-indol-6-yl)-5-fluoro-2-((1H-pyrrolo[2,3-b]pyridin-4-ylmethyl)amino)-3-pyridinecarboxamide], the figures for the IC50 (in assay [1]; on CYP 2D6) were below 0.5 µM and above 20 µM, respectively.

For the compound `CC1(C)CC(=O)Nc2cc(NC(=O)c3cc(F)cnc3NCc3ccnc4[nH]ccc34)ccc21` [Example 81, N-(4,4-dimethyl-2-oxo-1,2,3,4-tetrahydro-7-quinolinyl)-5-fluoro-2-((1H-pyrrolo[2,3-b]pyridin-4-ylmethyl)amino)-3-pyridinecarboxamide], the IC50 in assay [1] was below 0.5 µM; on CYP 2D6 it was above 20 µM.

On to `CC1(C)CCNc2cc(NC(=O)c3cc(F)cnc3NCc3ccnc4[nH]ccc34)ccc21` [Example 82, N-(4,4-dimethyl-1,2,3,4-tetrahydro-7-quinolinyl)-5-fluoro-2-((1H-pyrrolo[2,3-b]pyridin-4-ylmethyl)amino)-3-pyridinecarboxamide], for which the IC50 was below 0.5 µM in assay [1] and above 20 µM at CYP 2D6.

For the compound `CC(C)Oc1ccc(NC(=O)c2cc(F)cnc2NCc2ccnc3[nH]ccc23)cc1` [Example 95, 5-fluoro-N-(4-((1-methylethyl)oxy)phenyl)-2-((1H-pyrrolo[2,3-b]pyridin-4-ylmethyl)amino)-3-pyridinecarboxamide], the IC50 on CYP 3A4 is above 20 µM.

Turning to `Cc1nc2cc(NC(=O)c3cc(F)cnc3NCc3ccnc4[nH]ncc34)ccc2s1` [Example 116, 5-fluoro-N-(2-methyl-1,3-benzothiazol-5-yl)-2-((1H-pyrazolo[3,4-b]pyridin-4-ylmethyl)amino)-3-pyridinecarboxamide], the IC50 in assay [1] is below 0.5 µM; at CYP 2D6, above 20 µM.
